Reference: patent publication US6458765B1, “Dolastatin 15 derivatives” (BASF Aktiengesellschaft, priority 1997, dated 2002)

Columns and labels:
[1] = test system: HT-29 colon carcinoma cells; format: cell-based
[2] = test system: P388 lymphocytic leukemia (PS system) cell line; details: National Cancer Institute's P388 (PS system); cited from earlier work
[3] = synthetic Dolastatin 15; cited from earlier work

| Substance | IC50 [1] | other results |
| --- | --- | --- |
| Xaq Val Xaa Pro Xab [Compound 14] | 1.5 nM | – |
| Xbe Val Xaa Pro Xab [Compound 32] | 850 nM | – |
| Xbd Val Xaa Pro Xab [Compound 30] | 6.1 nM | – |
| Xbk Val Xaa Pro Xab [Compound 40] | 560 nM | – |
| Xau Val Xaa Pro Xbx [Compound 74] | 51 nM | – |
| Xbo Val Xaa Pro Xbn [Compound 46] | 720 nM | – |
| Xba Val Xaa Pro Xcc [Compound 103] | 110 nM | – |
| Xbi Val Xaa Pro Xcc [Compound 82] | 11 nM | – |
| Xbs Val Xaa Pro Xbt [Compound 53] | 5 nM | – |
| Xax Val Xaa Pro Xab [Compound 22] | 640 nM | – |
| Xbz Val Xaa Pro Xab [Compound 68] | 420 nM | – |
| Xba Val Xaa Pro Xbp [Compound 101] | 2100 nM | – |
| Xbf Val Xaa Pro Xab [Compound 34] | 5 nM | – |
| Xba Val Xaa Pro Xcc [Compound 102] | 120 nM | – |
| Xbw Val Xaa Pro Xab [Compound 58] | 63 nM | – |
| Xce Val Xaa Pro Xab [Compound 105] | 18 nM | – |
| Xbk Val Xaa Pro Xab [Compound 41] | 7300 nM | – |
| Xau Val Xaa Pro Xbp [Compound 73] | 1.4 nM | – |
| Xca Val Xaa Pro Xab [Compound 70] | 7100 nM | – |
| Xba Val Xaa Pro Xcd [Compound 104] | 3500 nM | – |
| Xbi Val Xaa Pro Xab [Compound 39] | 25 nM | – |
| Xbo Val Xaa Pro Xbp [Compound 50] | 89 nM | – |
| Xbg Val Xaa Pro Xab [Compound 35] | 140 nM | – |

| Substance | IC50 [1] | other results |
| --- | --- | --- |
| Xau Val Xaa Pro Xcc [Compound 90] | 0.93 nM | – |
| Xbo Val Xaa Pro Xbp [Compound 49] | 88 nM | – |
| Xbo Val Xaa Pro Xbp [Compound 94] | 3000 nM | – |
| [N-Methyl-D-Pro]-Val-MeVal-Pro-Pro-NHBn [Compound 5] | 5 nM | – |
| [N-Methyl-D-piperidine-2-carbonyl]-Val-MeVal-Pro-Pro-NHBn [Compound 2] | 0.68 nM | – |
| Xbo Val Xaa Pro Xbn [Compound 47] | 23 nM | – |
| Xbi Val Xaa Pro Xcd [Compound 98] | 6 nM | – |
| Xaw Val Xaa Pro Xbp [Compound 48] | 25 nM | – |
| Me2Aib-Val-MeVal-Pro-Pro-NHBn [Compound 3] | 35 nM | – |
| Xbd Val Xaa Pro Xab [Compound 31] | 200 nM | – |
| Xbl Val Xaa Pro Xab [Compound 54] | 4.2 nM | – |
| Xaw Val Xaa Pro Xbx [Compound 66] | 340 nM | – |
| Xar Val Xaa Pro Xab [Compound 15] | 170 nM | – |
| Xbm Val Xaa Pro Xab [Compound 44] | 48 nM | – |
| Xbo Val Xaa Pro Xbr [Compound 62] | 99 nM | – |
| Xbo Val Xaa Pro Xbq [Compound 64] | 1700 nM | – |
| Xbw Val Xaa Pro Xab [Compound 59] | 190 nM | – |
| Xat Val Xaa Pro Xab [Compound 18] | 8.8 nM | – |
| Xaw Val Xaa Pro Xbq [Compound 51] | 46 nM | – |
| Xcg Val Xaa Pro Xab [Compound 108] | 7100 nM | – |
| Xau Val Xaa Pro Xbp [Compound 97] | 32 nM | – |
| Xbi Val Xaa Pro Xcd [Compound 83] | 130 nM | – |
| Xbi Val Xaa Pro Xcc [Compound 81] | 130000 nM | – |

| Substance | IC50 [1] | other results |
| --- | --- | --- |
| Xby Val Xaa Pro Xab [Compound 67] | 340 nM | – |
| Xbv Val Xaa Pro Xab [Compound 57] | 25 nM | – |
| Xbc Val Xaa Pro Xab [Compound 29] | 36 nM | – |
| Xbe Val Xaa Pro Xab [Compound 33] | 1200 nM | – |
| Xbi Val Xaa Pro Xbx [Compound 75] | 850 nM | – |
| Xbb Val Xaa Pro Xab [Compound 28] | 49 nM | – |
| Xau Val Xaa Pro Xcb [Compound 78] | 4.3 nM | – |
| Xas Val Xaa Pro Xab [Compound 16] | 0.73 nM | – |
| Xbi Val Xaa Pro Xcb [Compound 80] | 67 nM | – |
| Xcf Val Xaa Pro Xab [Compound 106] | 97 nM | – |
| Xbo Val Xaa Pro Xbx [Compound 72] | 120 nM | – |
| Xbh Val Xaa Pro Xab [Compound 36] | 6.2 nM | – |
| Xbl Val Xaa Pro Xab [Compound 55] | 56 nM | – |
| Xau Val Xaa Pro Xbp [Compound 96] | 1.7 nM | – |
| Xau Val Xaa Pro Xab [Compound 76] | 0.23 nM | – |
| Xba Val Xaa Pro Xbp [Compound 100] | 2300 nM | – |
| Xbl Val Xaa Pro Xab [Compound 42] | 340 nM | – |
| Xbh Val Xaa Pro Xab [Compound 37] | 190 nM | – |
| Xbo Val Xaa Pro Xbr [Compound 63] | 56 nM | – |
| Xat Val Xaa Pro Xab [Compound 17] | 63 nM | – |
| Xbi Val Xaa Pro Xab [Compound 38] | 730 nM | – |
| Xam Val Xaa Pro Xab [Compound 10] | 130 nM | – |
| Xaw Val Xaa Pro Xbn [Compound 45] | 56 nM | – |

| Substance | IC50 [1] | other results |
| --- | --- | --- |
| Xba Val Xaa Pro Xcb [Compound 92] | 1500 nM | – |
| [N-Methyl-L-piperidine-2-carbonyl]-Val-MeVal-Pro-Pro-NHBn [Compound 1] | 47 nM | – |
| Xau Val Xaa Pro Xcd [Compound 91] | 0.83 nM | – |
| Xbi Val Xaa Pro Xcb [Compound 79] | 1700 nM | – |
| Xbk Val Xaa Pro Xcc [Compound 84] | 1200 nM | – |
| Xbf Val Xaa Pro Xab [Compound 43] | 59 nM | – |
| Xbk Val Xaa Pro Xcd [Compound 99] | 3800 nM | – |
| Xba Val Xaa Pro Xab [Compound 27] | 37 nM | – |
| Xaw Val Xaa Pro Xbr [Compound 52] | 340 nM | – |
| Xbo Val Xaa Pro Xbp [Compound 95] | 11 nM | – |
| Xad Val Xaa Pro Xap [Compound 13] | 1 nM | – |
| Xao Val Xaa Pro Xab [Compound 12] | 370 nM | – |
| Xbo Val Xaa Pro Xbq [Compound 65] | 97 nM | – |
| Dolastatin 15 | – | inhibition of growth of P388 cell line [2]: markedly inhibits the growth; solubility in aqueous systems [3]: poor solubility |
| Xau Val Xaa Pro Xab [Compound 77] | 7.2 nM | – |
| Xba Val Xaa Pro Xcb [Compound 93] | 1800 nM | – |
| Xbk Val Xaa Pro Xcc [Compound 85] | 9500 nM | – |
| Xae Val Xaa Pro Xab [Compound 8] | 510 nM | – |
| Xay Val Xaa Pro Xab [Compound 24] | 28 nM | – |
| [N,N-Dimethyl-2-ethyl-2-phenylglycyl]-Val-MeVal-Pro-Pro-NHBn×HCl [Compound 4] | 1.2 nM | – |
| Xbs Val Xaa Pro Xbt [Compound 60] | 1.8 nM | – |
